# Test system: GST-Bcl-2
# Assay: TR-FRET binding assay, Bcl-2
# Conditions: TR-FRET Ki values
# Protocol: Tb-anti-GST antibody was purchased from Invitrogen (Catalog No. PV4216).
# Representative compounds were serially diluted in dimethyl sulfoxide (DMSO) starting at 50 μM (2× starting concentration; 10% DMSO) and 10 μL were transferred into a 384-well plate.
# The samples were then mixed on a shaker for 1 minute and incubated for an additional 3 hours at room temperature. For each assay, the probe/antibody and protein/probe/antibody were included on each assay plate as negative and positive controls, respectively. Fluorescence was measured on the Envision (Perkin Elmer) using a 340/35 nm excitation filter and 520/525 (F-Bak peptide) and 495/510 nm (Tb-labeled anti-Histidine antibody) emission filters.
# The inhibition constant (Ki) is the dissociation constant of an enzyme-inhibitor complex or a protein/small molecule complex, wherein the small molecule is inhibiting binding of one protein to another protein or peptide. […] Inhibition constants were determined using Wang's equation (Wang Z-X., An Exact Mathematical Expression For Describing Competitive Binding Of Two Different Ligands To A Protein Molecule. FEBS Lett. 1995, 360:111-4).
row,SMILES,Binding selectivity ratio (Bcl-XL Ki/Bcl-2 Ki)
1,"CC1(C)CCC(CN2CCN(c3ccc(C(=O)NS(=O)(=O)c4ccc(S(C)(=O)=O)cc4)c(Oc4cccc5[nH]ccc45)c3)CC2)=C(c2ccc(Cl)cc2)C1 [EXAMPLE 383, 4-(4-{[2-(4-chlorophenyl)-4,4-dimethylcyclohex-1-en-1-yl]methyl}piperazin-1-yl)-2-(1H-indol-4-yloxy)-N-{[4-(methylsulfonyl)phenyl]sulfonyl}benzamide]",>304.1
2,"O=C(NS(=O)(=O)c1ccc(NCCCN2CCCC2)c([N+](=O)[O-])c1)c1ccc(N2CCN(Cc3ccccc3-c3ccc(Cl)cc3)CC2)cc1Oc1ccccc1 [Example 91, 4-{4-[(4′-chloro-1,1′-biphenyl-2-yl)methyl]piperazin-1-yl}-N-({3-nitro-4-[(3-pyrrolidin-1-ylpropyl)amino]phenyl}sulfonyl)-2-phenoxybenzamide]",52.8
3,"O=C(NS(=O)(=O)c1ccc(NCc2cccs2)c([N+](=O)[O-])c1)c1ccc(N2CCN(Cc3ccccc3-c3ccc(Cl)cc3)CC2)cc1Oc1ccccc1 [Example 162, 4-{4-[(4′-chloro-1,1′-biphenyl-2-yl)methyl]piperazin-1-yl}-N-({3-nitro-4-[(thien-2-ylmethyl)amino]phenyl}sulfonyl)-2-phenoxybenzamide]",123.8
4,"CC1(C)CCC(CN2CCN(c3ccc(C(=O)NS(=O)(=O)c4ccc(NCCN5CCNC5=O)c([N+](=O)[O-])c4)c(Oc4ccc5[nH]ccc5c4)c3)CC2)=C(c2ccc(Cl)cc2)C1 [EXAMPLE 268, 4-(4-{[2-(4-chlorophenyl)-4,4-dimethylcyclohex-1-en-1-yl]methyl}piperazin-1-yl)-2-(1H-indol-5-yloxy)-N-[(3-nitro-4-{[2-(2-oxoimidazolidin-1-yl)ethyl]amino}phenyl)sulfonyl]benzamide]",1563.9
5,"O=C(NS(=O)(=O)c1ccc(NCCc2ccncc2)c([N+](=O)[O-])c1)c1ccc(N2CCN(Cc3ccccc3-c3ccc(Cl)cc3)CC2)cc1Oc1ccccc1 [Example 169, 4-{4-[(4′-chloro-1,1′-biphenyl-2-yl)methyl]piperazin-1-yl}-N-({3-nitro-4-[(2-pyridin-4-ylethyl)amino]phenyl}sulfonyl)-2-phenoxybenzamide]",91.4
6,"COC1CCC(Nc2ccc(S(=O)(=O)NC(=O)c3ccc(N4CCN(CC5=C(c6ccc(Cl)cc6)CC(C)(C)CC5)CC4)cc3Oc3ccc4[nH]ccc4c3)cc2[N+](=O)[O-])CC1 (stereo not drawn) [EXAMPLE 265, 4-(4-{[2-(4-chlorophenyl)-4,4-dimethylcyclohex-1-en-1-yl]methyl}piperazin-1-yl)-2-(1H-indol-5-yloxy)-N-({4-[(4-methoxycyclohexyl)amino]-3-nitrophenyl}sulfonyl)benzamide]",>388.8
7,"O=C(NS(=O)(=O)c1ccc(-n2ncc([N+](=O)[O-])n2)cc1)c1ccc(N2CCN(Cc3ccccc3-c3ccc(Cl)cc3)CC2)cc1Oc1ccccc1 [Example 31, 4-{4-[(4′-chloro-1,1′-biphenyl-2-yl)methyl]piperazin-1-yl}-N-{[4-(4-nitro-2H-1,2,3-triazol-2-yl)phenyl]sulfonyl}-2-phenoxybenzamide]",>18.0
8,"CC1(C)CCC(CN2CCN(c3ccc(C(=O)NS(=O)(=O)c4ccc(NC5CCN(CCCC(F)(F)F)CC5)c([N+](=O)[O-])c4)c(Oc4cccc5[nH]ccc45)c3)CC2)=C(c2ccc(Cl)cc2)C1 [EXAMPLE 210, 4-(4-{[2-(4-chlorophenyl)-4,4-dimethylcyclohex-1-en-1-yl]methyl}piperazin-1-yl)-2-(1H-indol-4-yloxy)-N-[(3-nitro-4-{[1-(4,4,4-trifluorobutyl)piperidin-4-yl]amino}phenyl)sulfonyl]benzamide]",>1057.6
9,"CN(C)CCOc1cccc(-c2ccc(Cl)cc2)c1CN1CCN(c2ccc(C(=O)NS(=O)(=O)c3ccc(NC4CCN(C5CCOCC5)CC4)c([N+](=O)[O-])c3)c(Oc3cccc4[nH]ccc34)c2)CC1 [EXAMPLE 199, 4-[4-({4′-chloro-3-[2-(dimethylamino)ethoxy]-1,1′-biphenyl-2-yl}methyl)piperazin-1-yl]-2-(1H-indol-4-yloxy)-N-({3-nitro-4-[(1-tetrahydro-2H-pyran-4-ylpiperidin-4-yl)amino]phenyl}sulfonyl)benzamide]",369.8
10,"CC1(C)CCC(CN2CCN(c3ccc(C(=O)NS(=O)(=O)c4cnc(OCC5CCOC5)c(Cl)c4)c(Oc4cccc5[nH]ncc45)c3)CC2)=C(c2ccc(Cl)cc2)C1 (stereo not drawn) [EXAMPLE 420, 4-(4-{[2-(4-chlorophenyl)-4,4-dimethylcyclohex-1-en-1-yl]methyl}piperazin-1-yl)-N-{[5-chloro-6-(tetrahydrofuran-3-ylmethoxy)pyridin-3-yl]sulfonyl}-2-(1H-indazol-4-yloxy)benzamide]",1153
11,"CC1(C)CCC(CN2CCN(c3ccc(C(=O)NS(=O)(=O)c4ccc(NCCCN5CCS(=O)(=O)CC5)c([N+](=O)[O-])c4)c(Oc4ccc5[nH]ccc5c4)c3)CC2)=C(c2ccc(Cl)cc2)C1 [EXAMPLE 266, 4-(4-{[2-(4-chlorophenyl)-4,4-dimethylcyclohex-1-en-1-yl]methyl}piperazin-1-yl)-N-[(4-{[3-(1,1-dioxidothiomorpholin-4-yl)propyl]amino}-3-nitrophenyl)sulfonyl]-2-(1H-indol-5-yloxy)benzamide]",>3607.7
12,"CC1(C)CCC(CN2CCN(c3ccc(C(=O)NS(=O)(=O)c4ccc(Nc5ccc(O)cc5)c([N+](=O)[O-])c4)c(Oc4ccc5[nH]ccc5c4)c3)CC2)=C(c2ccc(Cl)cc2)C1 [EXAMPLE 375, 4-(4-{[2-(4-chlorophenyl)-4,4-dimethylcyclohex-1-en-1-yl]methyl}piperazin-1-yl)-N-({4-[(4-hydroxyphenyl)amino]-3-nitrophenyl}sulfonyl)-2-(1H-indol-5-yloxy)benzamide]",>58.6
13,"CC1(C)CCC(CN2CCN(c3ccc(C(=O)NS(=O)(=O)c4ccc(NN5CCCCC5)c([N+](=O)[O-])c4)c(Oc4ccc5[nH]ccc5c4)c3)CC2)=C(c2ccc(Cl)cc2)C1 [EXAMPLE 284, 4-(4-{[2-(4-chlorophenyl)-4,4-dimethylcyclohex-1-en-1-yl]methyl}piperazin-1-yl)-2-(1H-indol-5-yloxy)-N-{[3-nitro-4-(piperidin-1-ylamino)phenyl]sulfonyl}benzamide]",>425.2
14,"O=C(NS(=O)(=O)c1ccc(NCC2CCOCC2)c([N+](=O)[O-])c1)c1ccc(N2CCN(CC3=C(c4ccc(Cl)cc4)CCC(N4CCOCC4)C3)CC2)cc1Oc1ccc2[nH]ccc2c1 (stereo not drawn) [EXAMPLE 249, 4-(4-{[2-(4-chlorophenyl)-5-morpholin-4-ylcyclohex-1-en-1-yl]methyl}piperazin-1-yl)-2-(1H-indol-5-yloxy)-N-({3-nitro-4-[(tetrahydro-2H-pyran-4-ylmethyl)amino]phenyl}sulfonyl)benzamide]",>7302.0
15,"CC1(C)CCC(CN2CCN(c3ccc(C(=O)NS(=O)(=O)c4ccc(NCCC#N)c([N+](=O)[O-])c4)c(Oc4cccc5[nH]ccc45)c3)CC2)=C(c2ccc(Cl)cc2)C1 [EXAMPLE 320, 4-(4-{[2-(4-chlorophenyl)-4,4-dimethylcyclohex-1-en-1-yl]methyl}piperazin-1-yl)-N-({4-[(2-cyanoethyl)amino]-3-nitrophenyl}sulfonyl)-2-(1H-indol-4-yloxy)benzamide]",103.6
